Assay results published in patent US12508275B2, “Neomycin based compounds, and pharmaceutical use thereof” (UNIVERSITÉ COTE D'AZUR, priority 2019, dated 2025).

Columns and labels:
NESTIN expression in GB5 = assay: NESTIN expression by immunofluorescence in GB5; type: cell-based, human; conditions: GB5, seven days
Procedure: FIG. 2: Compounds 9a-b and 18a-b effect on stemness marker expression, clonal expansion and mitosis in GB5 cells. (A) NESTIN expression was assessed by immunofluorescence in GB5 treated with increasing amount of Compounds 9a-b and 18a. The number of NESTIN positive cells was counted for each treatment and express as percentage of the control (100%). The results are the meaning of at least two separate experiments. […] (C) Clonal expansion analysis was performed with GB5 cells as described in the material and method section. Two and three weeks later, the number of spheroids is counted and reported as percentage of the initial number of cells in the well. The results are the meaning of a minimum of two separate experiments. (D) The number of mitosis in the culture was determined by the detection of the number of cells positive for histone H3 phosphorylated on ser-10 (H3-ser10). H3-ser10 expression was assessed by immunofluorescence in GB5 treated with increasing amount of Compounds 9a-b and 18a. The number of positive cells was counted for each treatment and express as percentage of the control (100%). The results are the meaning of at least two separate experiments.
III—Immunofluorescence assay: TG6 and GB5 were seeded at 2000 cells/well in 24 wells plate in NS34+ alone or containing 5, 7.5, 10, 12.5, 15, 20 and 25 uM of Compounds 9a-b and 18a-b. Cultures were incubated 4 days and the cells were fixed with 4% paraformaldehyde for 10 min at room temperature then washed with PBS. Cells were then incubated with ammonium chloride at 20 mM 5 min at room temperature and washed 5 times with PBS. Blocking and hybridization were realized in PBS containing 10% FCS and 0.1% Triton X100. Anti-Nestin and anti-H3Phospho serine 10 antibodies were incubated 2 hours at room temperature then washed with PBS. Fluorescence coupled secondary antibodies and Hoechst 33342 nuclei counterstaining reagent were hybridized one hour at room temperature. Cells were mounted with anti-fading agent then imaged, counted and quantified using fluorescent microscopy (TiE Nikon) and NiS software (Nikon).
Patient derived GSC (GB5) have been treated during seven days, with growing concentrations of compounds that have been capable of inducing changes of GSC morphology. To assess the consequence on stemness maintenance, we observed, by immunofluorescence, the expression of stemness and progenitor cells such as the NESTIN protein. […] The strongest effect has been obtained with Compounds 9a treatment (IC50=10 uM).

[1] = test system: luminescent patient derived GSC orthotopic xenograft; assay: Orthotopic xenograft of luminescent patient derived GSC, treatment from two weeks after injection; type: in vivo, nude mice
Procedure: FIG. 3: Nude mice were orthotopically xenografted by luminescent patient derived GSC. (A-B) Two weeks following injections, mice were intraperitoneally injected with 10 mg/kg (n=4), 7.5 mg/kg (n=4) or 5 mg/kg (n=4) of Compound 9a or vehicle alone as control (ctl n=10). A) graphical representation of the average of tumor growth in the control group (n=10) and in each Compound 9a treated groups. B) Survival of the whole population of mice of the untreated and treated groups were compared using a log rank test according to Kaplan Meier method. (R command, see World Wide Web: biostatgv.sentiweb.fr/?module=tests/surv). The solid line represents the survival rate of control untreated mice. The dotted line represents the survival rate of mice treated by compound 9a. C) Mice treatment with compound 9a when the tumors were already formed. Tumor growth representation in mice, treated either with DMSO (control: -♦-) or Compound 9a (-▪-). Tumor growth was controlled every week by live imaging. The solid line represents the tumor growth in control untreated mice. The dotted line represents the tumor growth in mice treated by compound 9a.
Nude mice were orthotopically xenografted by luminescent patient derived GSC. […]

[2] = test system: human hepatocytes (HEPRG); assay: XTT toxicity assay on human hepatocytes; type: cell-based
Procedure: (§1) FIG. 4: Determination of compound toxicity on GSC and normal human cells. (A) GB5 were incubated with growing concentration of Compounds 9a-b and 18a. (B) human normal neural stem cell (NNSC), human normal kidney cells (NHEK), human normal hepatocytes (HEPRG) and (C) human endothelial cells (HUVEC) were treated with growing concentration of Compound 9a. 7 days later, the cells were subjected to an XTT assays as described in the method section. The results are the meaning of at least two separate experiments. Cell death was confirmed by trypan blue staining (not shown).
HepaRG™ are terminally differentiated hepatic cells derived from a human hepatic progenitor cell that retains many characteristics of primary human hepatocytes. HepaRG were grown in William's E Medium supplemented with Tox medium supplement and glutamax.
(§2) V—Toxicity tests: NNSC, GB5, TG6, HEK293, and HepaRG, HUVEC were seeded at 2000 cells/well in 96 wells plate in their respective culture mediums alone or containing growing concentration from 10 to 500 uM of Compounds 9a-b. Cultures were incubated 4 days and the cellular toxicity has been evaluated by XTT assays. Cell viability has been also assessed by counting living and dead cells with trypan blue staining.
XTT assays allows, through cell metabolism measurement, to determine a cytotoxic/cytostatic effects. […]

[3] = test system: human endothelial cells (HUVEC); assay: XTT toxicity assay on human endothelial cells; type: cell-based
Procedure: as §1, §2
XTT assays allows, through cell metabolism measurement, to determine a cytotoxic/cytostatic effects. Compounds 9a-b and 18a were tested for their eventual toxicity by XTT assays as described in the material and method section. At the working concentrations 10 to 25 uM, the compounds are not toxic for GSC (FIG. 4A). […]

SMILES: NCCCCNCCCNC(=O)c1csc(-c2csc(CCNC(=O)CCc3cn(CC4OC(OC5C(O)C(N)CC(N)C5OC5OC(CN)C(O)C(O)C5N)C(O)C4OC4OC(CN)C(O)C(O)C4N)nn3)n2)n1 (centres unmarked) [Compound 9a, N-(3-((4-Aminobutyl)amino)propyl)-2′-(2-(3-(1-methyl-1H-1,2,3-triazol-4-yl)propanamido)ethyl)-[2,4′-bithiazole]-4-carboxamide-neomycin]
- NESTIN expression (NESTIN expression in GB5; growing concentrations): drop in NESTIN expression
- IC50 (NESTIN expression in GB5; Homo sapiens, 168 h): 10 µM
- treated mice that developed a tumor ([1]; intraperitoneal 10, 7.5 or 5 mg/kg, three days a week, all control mice developed a tumor): two mice above twelve
- tumor initiation and development ([1]; intraperitoneal at 10 mg/kg, 7.5 mg/kg and 5 mg/kg): prevented tumor initiation and development
- toxicity (XTT) ([2]; 100 uM and above): toxic
- toxicity (XTT) ([2]; between 10 to 50 uM): not toxic
- toxicity (XTT) ([3]; 100 uM and above): toxic
- toxicity (XTT) ([3]; between 10 to 50 uM): not toxic
